The values below come from patent publication US12577235B2, “Crystalline form of CXCR2 antagonist and application thereof” (Shenzhen Optimum Biological Technology Co., Ltd, priority 2019, dated 2026).

Data set [1] is described as follows: Plasma pharmacokinetic assay in rats. Format: in vivo, Lewis rats. The protocol: In this plasma pharmacokinetic assay, 4 male Lewis rats were used and randomized into two groups, with 2 animals in each group. The animals in the first group were given 2 mg/kg of the test compound by intravenous injection and the animals in the second group were given 10 mg/kg of the test compound by intragastric administration. An aqueous solution of 1% DMSO/20% PEG400/79% (HP-b-CD) was used as the vehicle, and the resulting intravenous and intragastric formulations (adjusted to pH=2.78) were clear solutions. Blood samples were collected from saphenous veins of animals at 0.0830, 0.25, 0.5, 1, 2, 4, 6, 8 and 24 hours post-dose for the intravenous injection group, and at 0.25, 0.5, 1, 2, 4, 6, 8 and 24 hours post-dose for the intragastric administration group, with 3 samples at each time point. Plasma samples of the intragastric administration group were cryopreserved at −80° C. and thawed before LC-MS/MS sample analysis. Acetonitrile containing internal standard was added to the thawed plasma samples at a certain ratio to precipitate proteins.
The mixture was centrifuged, and the supernatant was subjected to analysis by LC-MS/MS. An API4000 or 5500 system equipped with ACQUITY UPLC BEH C18 (2.1×50 mm, 1.7 μm) column and ESI positive or negative ion source was used. Each analysis batch included standard samples with 8 concentrations. A curve of the ratio of the peak areas of the test compound to the internal standard (IS) vs. the concentration of the test compound in the plasma sample was plotted, and linear regression was performed using 1/X^2 as weighting coefficient to give a regression equation between the measured response and the concentration. Each analysis batch also included corresponding quality control samples. Data processing was performed using Phoenix 6.3 WinNonlin® to give corresponding PK parameters.

In data set [2] the target is T1, CXCR2 (Homo sapiens, UniProt P25025).
T1 sequence (P25025 1-360): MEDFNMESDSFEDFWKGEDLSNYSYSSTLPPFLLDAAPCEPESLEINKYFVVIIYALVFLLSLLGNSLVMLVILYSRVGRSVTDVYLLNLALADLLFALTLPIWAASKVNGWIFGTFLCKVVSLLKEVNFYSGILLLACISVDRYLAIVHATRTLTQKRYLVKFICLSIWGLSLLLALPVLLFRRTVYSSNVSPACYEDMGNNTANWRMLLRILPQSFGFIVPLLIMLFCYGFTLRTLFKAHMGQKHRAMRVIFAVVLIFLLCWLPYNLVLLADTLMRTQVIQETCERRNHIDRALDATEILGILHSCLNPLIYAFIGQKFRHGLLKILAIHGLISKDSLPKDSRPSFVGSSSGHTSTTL
The data set is described as follows: PathHunter CXCR2 β-arrestin cell assay (CXCL8 agonist, chemiluminescence). Format: cell-based. The following applies: CXCR2 β-arrestin cells, CXCL8 at EC80. The protocol:
CXCR2 β-arrestin cells (DiscoverX) of PathHunter® were cultured in standard conditions and inoculated at 20 μL/well to a 384-well white microplate. Before testing, the cells were incubated at 37° C. for an appropriate period of time. The test compound was serially 3-fold diluted in DMSO to give 8 concentrations. Shortly before testing, the serially diluted test samples were further diluted with test buffer to 5 folds of the test concentration. 5 μL of further diluted test samples were added to the cells and the cells were incubated at 37° C. for 30 min. The concentration of vehicle was 1%. 5 μL of 6×EC80 agonist (CXCL8) buffer was then added to the cells, and the cells were incubated at 37° C. for 90 min. The test signal was generated by adding 15 μL (50% v/v) of PathHunter detection mixture reagent in one portion and subsequently incubating the cells for 1 h. The chemiluminescence signal of the microplate was read by a PerkinElmer Envision™ instrument. The biological activities of the test compounds were analyzed by CBIS data analysis kit (ChemInnovation, CA), shown as IC50 values.

For data set [3], the system named is rat COPD model induced by smoking combined with lipopolysaccharide. The data set is described as follows: Anti-inflammation effect in rat COPD model induced by smoking combined with lipopolysaccharide. It counts as in vivo, SD rats. The following applies: Danirixin 30 mpk; crystalline form A 3-30 mpk. The procedure: Modeling: the animal model was prepared by exposing the rats to cigarette smoke once daily for 14 days. The rats were smoked for 90 min per day in 2 portions with a break of 10 min. 18 Marlboro cigarettes (with a tar content of 11 mg) were given each time. LPS was administered dropwise via airway at 200 μg/rat once weekly. The administration dropwise was performed on days 6 and 13 of smoke exposure (on the day of LPS administration dropwise, only LPS was administered dropwise for modeling without smoke exposure). • 2. Administration: an aqueous solution of 1% DMSO/20% PEG400/79% (HP-b-CD) was used as the vehicle, and the drugs were administrated intragastrically everyday at a volume of 5 mL/kg for 2 weeks. • 3. Endpoint: On day 15, pulmonary function test, sample collection, inflammatory cell count in bronchoalveolar lavage fluid, pathological analysis, and lung tissue MPO and MMP9 assay were carried out. Procedures of Pulmonary Function Test:
After the last smoking and modeling were finished, pulmonary function was tested for each group of animals on the second day, and pulmonary resistance and compliance were detected under stimulation of methacholine chloride at different doses. The animals were anesthetized by intraperitoneal injection with […] of 25% urethane. After the animals were deeply anesthetized, airway intubation was performed by separating airways, and meanwhile, jugular veins were separated. After breathing stably, the animals were put into a plethysmograph. Drug administration pipelines were inserted into the separated jugular veins. After the animals were in rest state for 1-2 min and the breathing curves were stable, then detection was started. Rats were administered with methacholine chloride at doses of 0, 0.0083, 0.025, 0.075, 0.225, 0.675 mg/kg by jugular vein intubation. The increase in airway resistance and decrease in pulmonary compliance were observed after each administration. After 1-2 min, the parameters returned to near the baseline of the previous concentration of methacholine chloride, and methacholine chloride of the next concentration was injected. After the detection was finished, subsequent alveolar lavage and sample collection were performed.
After the pulmonary function test was finished, the rats were sacrificed by cervical dislocation. After the animals were confirmed dead, the lungs were carefully separated, a lavage syringe was inserted into the main trachea and fixed with 2-0 silk thread. The right lung was ligated. 5 mL of low-temperature normal saline was slowly injected through the lavage syringe. The normal saline was slowly extracted after confirming that the normal saline was injected into the left lung. The operation was repeated twice. By the three lavages, a total of 15 mL of normal saline was injected for lavage. The obtained BALF was injected into a 15 mL centrifuge tube and preserved in a storage box at 4° C. for subsequent BALF cells counting.
After BALF was collected, the right lung which was not infused was taken off and weighted. The two upper lobes of the right lung were put into a cryopreservation tube, frozen in a freezer at −80° C. for later use. Lower lobe tissues were fixed in formalin.
1 mL of homogenously mixed BALF was added into 1 mL of a solution of 1% glacial acetic acid in normal saline. Cells were counted using a hemocytometer. The remaining lavage fluid was centrifuged at 1500 r/min for 10 min at 4° C. to give a cell mass. The cells were resuspended in 200 μL of normal saline, uniformly coated on a glass slide and stained by Wright-Giemsa stain. Macrophages, neutrophils and lymphocytes in a total of 200 cells were counted under a microscope, and the proportions of the cells was calculated. For lavage fluid collection, animals failing the lavage fluid collection were not summarized. […]

Data set [4] deals with PPE-induced SD rat COPD model. The data set is described as follows: Therapeutic effect on PPE-induced COPD model. Format: in vivo, SD rats. The conditions noted are these: 30 mpk intragastric daily, 4 weeks. The text has this: • To test the therapeutic effect of the compound on PPE-induced SD rat COPD model. Materials: • Animals: SD rats (male, 160-180 g, 6 weeks age) • Test compounds: porcine pancreatic elastase (Sigma, 0.068 U/μL); Danirixin, compound 1. • Grouping: 1) vehicle group • 2) COPD model group (porcine pancreatic elastase modeling group/solvent group) • 3) PPE+Danirixin (30 mpk) • 4) PPE+compound 1 (10 mpk) • 5) PPE+compound 1 (30 mpk) Procedures: • 1. Modeling: PPE was given retrolingually. • 2. Administration: an aqueous solution of 1% DMSO/20% PEG400/79% (HP-b-CD) was used as the vehicle, and the drugs were administrated intragastrically everyday at a volume of 2 mL/rat for 4 weeks. • 3. Endpoint: On day 29, pulmonary function test, sample collection, and inflammatory cell count in bronchoalveolar lavage fluid.
Bronchoalveolar lavage: The rats were sacrificed, and dissected at the neck. Trachea intubation was performed. 1 mL of cold […] at 4° C. was infused for 3 lavages, and the lavage fluids were combined. The combined lavage fluids were centrifuged at 1200 rpm/min for 5 min, and the supernatant was discarded. The cell suspension was collected;

SMILES strings stand for the structures.

As a reminder, the clearance is a measure of how efficiently the substance is removed, as volume per time. As a reminder, the IC50 is the concentration that inhibits the measured activity by half. Higher therefore signals a need for much substance. Turning to `O=C(Nc1ccc(Cl)c(S(=O)(=O)[C@H]2CCCNC2)c1O)N[C@@H]1CCCc2cc(C(F)(F)F)oc21` [Compound 1], the half-life in data set [1] (rat, plasma, po, male Lewis rats, 10 mg/kg intragastric, read-out: Intragastric administration Half life (T1/2) (converted)) was 4.22 h. Also, the Cmax in data set [1] (rat, plasma, po, male Lewis rats, 10 mg/kg intragastric, read-out: Intragastric administration Maximum plasma concentration (Cmax)) was found to be 3 µM. Besides, the AUC in data set [1] (rat, plasma, po, male Lewis rats, 10 mg/kg intragastric, read-out: Intragastric administration Plasma exposure (AUC)) is 31.3 µM·h. In addition, the clearance in data set [1] (rat, plasma, male Lewis rats, 2 mg/kg intravenous, read-out: Intravenous injection Clearance (CL)) was found to be 5.07 mL/min/kg. Further, the “Pharmacokinetic properties (in words)” value in data set [1] (rats) is recorded as “good pharmacokinetic properties”. Moreover, in data set [2], the 50% inhibitory concentration (IC50) amounted to 22 nM.
As to `Cc1c(F)cccc1NC(=O)Nc1ccc(Cl)c(S(=O)(=O)[C@H]2CCCNC2)c1O` [Danirixin, reference compound], the “Anti-inflammatory effect (summary)” value in data set [3] is recorded as “significant anti-inflammatory effect”. For the same molecule, in data set [4], the “Count of immune inflammatory cells (neutrophils, macrophages, lymphocytes) in bronchoalveolar lavage fluid” value is on record as “significantly reduced”.
